Earlier results in patent US20090298852A1, “Pellet-form slow-release preparation for vertigo” (priority 2005, published 2009).

Question: For `C(=C\c1ccccc1)/CN1CCN(C(c2ccccc2)c2ccccc2)CC1` [cinnarizine, 1-benzhydryl-4-trans-cinnamylpiperazine], which solubility in water is on record?
Answer: The solubility in water was “approximately 2 mg/100 ml”.
